≈ marks a conversion by molar mass, not a printed value. Bounds are passed on as bounds.

One test relates to Caenorhabditis elegans. Description: In vitro inhibition against Caenorhabditis elegans motility for anthelmintic activity was measured. The test is classed as functional, organism-based.
The subject of test [1] is Ovis aries. Description: Evaluated for the anthelmintic activity against Trichostrongylus colubriformis in sheep at dose of 2 mg/kg; value ranges from 91-100%. It counts as functional.
In test [2] the test system is Ovis aries. Description: Evaluated for the anthelmintic activity against Haemonchus contortus in sheep at dose of 2 mg/kg; value ranges from 91-100%. The test is classed as functional.
Test [3] relates to Ovis aries. The test can be described thus: Evaluated for the anthelmintic activity against Oesophagostomum columbianum in sheep at dose of 0.5 mg/kg. The test is classed as functional.
The subject of test [4] is Ovis aries. Description: Evaluated for the anthelmintic activity against Oesophagostomum columbianum in sheep at dose of 2 mg/kg; value ranges from 51-75%. The test is classed as functional.
Test [5] relates to Ovis aries. Description: Evaluated for the anthelmintic activity against Ostertagia circumcincta in sheep at dose of 0.5 mg/kg; value ranges from 91-100%. The test is classed as functional.
For test [6], the system named is Ovis aries. The test can be described thus: Evaluated for the anthelmintic activity against Ostertagia circumcincta in sheep at dose of 2 mg/kg; value ranges from 91-100%. The test is classed as functional.
Test [7] concerns Ovis aries. The test can be described thus: Evaluated for the anthelmintic activity against Trichostrongylus axei in sheep at dose of 0.5 mg/kg; value ranges from 91-100%. It counts as functional.
Test [8] relates to Ovis aries. Description: Evaluated for the anthelmintic activity against Trichostrongylus axei in sheep at dose of 2 mg/kg; value ranges from 91-100%. It counts as functional.
Test [9] has as its system Ovis aries. Description: Evaluated for the anthelmintic activity against Trichostrongylus colubriformis in sheep at dose of 0.5 mg/kg; value ranges from 91-100%. The test is classed as functional.
Test [10] concerns Ovis aries. The test can be described thus: Evaluated for the anthelmintic activity against Cooperia species in sheep at dose of 0.5 mg/kg; value ranges from 91-100%. It counts as functional.
The subject of test [11] is Ovis aries. Description: Evaluated for the anthelmintic activity against Cooperia species in sheep at dose of 2 mg/kg; value ranges from 91-100%. The test is classed as functional.
Test [12] concerns Ovis aries. The test can be described thus: Evaluated for the anthelmintic activity against Haemonchus contortus in sheep at dose of 0.5 mg/kg; value ranges from 91-100%. It counts as functional.

What is called IC50 is the concentration that inhibits the measured activity by half. In the test on Caenorhabditis elegans, `COCCOCO[C@]1(C)CCN2CC34CC5(C(=O)Nc6c5ccc5c6OC=CC(C)(C)O5)C(C)(C)C3CC21C(=O)N4C` (stereo partly specified) registered an IC50 of 20 µg/mL (≈ 34.4 µM).

In the test on Caenorhabditis elegans, `CCCCO[C@]1(C)CCN2CC34CC5(C(=O)Nc6c5ccc5c6OC=CC(C)(C)O5)C(C)(C)C3CC21C(=O)N4C` (stereo partly specified) came in with an IC50 of 5 µg/mL (≈ 9.1 µM).

Take `CN1C(=O)C23CC4C1(CN2CC[C@@]3(C)OCc1ccccc1)CC1(C(=O)Nc2c1ccc1c2OC=CC(C)(C)O1)C4(C)C` (stereo partly specified): the half-maximal inhibitory concentration (IC50) with Caenorhabditis elegans is 65 µg/mL (≈ 111 µM).

For `C#CCO[C@]1(C)CCN2CC34CC5(C(=O)Nc6c5ccc5c6OC=CC(C)(C)O5)C(C)(C)C3CC21C(=O)N4C` (stereo partly specified), the IC50 with Caenorhabditis elegans was determined as 7.5 µg/mL (≈ 14.1 µM).

As for `C=CCO[C@]1(C)CCN2CC34CC5(C(=O)Nc6c5ccc5c6OC=CC(C)(C)O5)C(C)(C)C3CC21C(=O)N4C` (stereo partly specified), the half-inhibitory concentration (IC50) with Caenorhabditis elegans worked out at 15 µg/mL (≈ 28.1 µM). Moreover, the Reduction in the test with Ovis aries [1] was 91%; with Ovis aries [2] it was 91%; in the test with Ovis aries [3], below 50%; in the test with Ovis aries [4], 51%; with Ovis aries [5], 91%; in the test with Ovis aries [6] it was 91%. Also, the Reduction in the test with Ovis aries [7], in the test on Ovis aries [8], in the test with Ovis aries [9], in the test with Ovis aries [10], with Ovis aries [11] and in the test with Ovis aries [12] was 91% in each case.

On to `CO[C@]1(C)CCN2CC34CC5(C(=O)Nc6c5ccc5c6OC=CC(C)(C)O5)C(C)(C)C3CC21C(=O)N4C` (stereo partly specified), for which, in the test with Caenorhabditis elegans, the concentration for half-maximal inhibition (IC50) was determined as 70 µg/mL (≈ 138 µM).

For `CN1C(=O)C23CC4C1(CN2CC[C@@]3(C)O[Si](C)(C)C)CC1(C(=O)Nc2c1ccc1c2OC=CC(C)(C)O1)C4(C)C` (stereo partly specified), inhibition in the test with Caenorhabditis elegans was half-maximal at 3 µg/mL (≈ 5.3 µM) (IC50).

Compound `CNC(=O)N(C)C(=O)O[C@]1(C)CCN2CC34CC5(C(=O)Nc6c5ccc5c6OC=CC(C)(C)O5)C(C)(C)C3CC21C(=O)N4C` (stereo partly specified) displayed an IC50 in the test on Caenorhabditis elegans of 60 µg/mL (≈ 98.7 µM).

In the test on Caenorhabditis elegans, `CCO[C@]1(C)CCN2CC34CC5(C(=O)Nc6c5ccc5c6OC=CC(C)(C)O5)C(C)(C)C3CC21C(=O)N4C` (stereo partly specified) had a half-maximal inhibitory concentration (IC50) of 2 µg/mL (≈ 3.83 µM).

The record behind these values is ChEMBL document CHEMBL1151056, “The preparation and utilization of paraherquamide-2-O-methyl imidate in the synthesis of 14-O-substituted paraherquamide derivatives” (Bioorg Med Chem Lett, 1992).
